Data taken from patent US20230031406A1, “COMPOUNDS AND COMPOSITIONS FOR TREATING CONDITIONS ASSOCIATED WITH NLRP ACTIVITY” (Novartis AG, priority 2018, published 2023).

system: PMA-differentiated THP-1 cells; experiment: IL-1β production in PMA-differentiated THP-1 cells stimulated with gramicidin (hTHP-1 assay containing 2% fetal bovine serum; Procedures 1 and 2); format: cell-based, human; details: Homo sapiens, THP-1, Table B3; hTHP-1 assay, 2% fetal bovine serum; class symbols; read-out: IC50
Procedure, shortened: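 PMA 20 ng/ml 16-18 h → trypsinise → 50,000 cells/well, RPMI/2% FBS; cpd 1 h (11-pt, 100–0.0017 μM; DMSO 0.37%); gramicidin 5 μM, 2 h; spin; supernatant IL-1β via HTRF.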

SMILES	IC50 [nM]
CC(C)(O)c1cccc(S(N)(=O)=NC(=O)Nc2c3c(nc4c2CCC4(C)C)CCC3)n1 (stereo not shown) [Example 630, N′-((3,3-dimethyl-1,2,3,5,6,7-hexahydrodicyclopenta[b,e]pyridin-8-yl)carbamoyl)-6-(2-hydroxypropan-2-yl)pyridine-2-sulfonimidamide]	5000 to 30000
CCn1ccc(S(N)(=O)=NC(=O)Nc2c3c(nc(C4CC4)c2C2CC2)CCC3)n1 (stereo not shown) [Example 632, N′-((2,3-dicyclopropyl-6,7-dihydro-5H-cyclopenta[b]pyridin-4-yl)carbamoyl)-1-ethyl-1H-pyrazole-3-sulfonimidamide]	1000 to 5000
Cc1c(C(F)(F)F)nc2c(c1NC(=O)N=S(N)(=O)c1ccn(C)n1)CCC2 (stereo not shown) [Example 633, 1-Methyl-N′-((3-methyl-2-(trifluoromethyl)-6,7-dihydro-5H-cyclopenta[b]pyridin-4-yl)carbamoyl)-1H-pyrazole-3-sulfonimidamide]	5000 to 30000
CCn1cc(F)c(S(N)(=O)=NC(=O)Nc2c(C)c(C3CC3)nc3c2CCC3)n1 (stereo not shown) [Example 637, N′-((2-cyclopropyl-3-methyl-6,7-dihydro-5H-cyclopenta[b]pyridin-4-yl)carbamoyl)-1-ethyl-4-fluoro-1H-pyrazole-3-sulfonimidamide]	200 to 1000
CC1(C)CCc2c1nc1c(c2NC(=O)N=[S@@](N)(=O)c2cc([C@](C)(O)CO)cs2)CCC1 [Example 651, (R)-4-((S)-1,2-dihydroxypropan-2-yl)-N′-((3,3-dimethyl-1,2,3,5,6,7-hexahydrodicyclopenta[b,e]pyridin-8-yl)carbamoyl) thiophene-2-sulfonimidamide]	40 to 200
CC1(C)CCc2c1nc1c(c2NC(=O)N=[S@](N)(=O)c2cc([C@](C)(O)CO)cs2)CCC1 [Example 652, (S)-4-((S)-1,2-dihydroxypropan-2-yl)-N′-((3,3-dimethyl-1,2,3,5,6,7-hexahydrodicyclopenta[b,e]pyridin-8-yl)carbamoyl) thiophene-2-sulfonimidamide]	5000 to 30000
CC1(C)CCc2c1nc1c(c2NC(=O)N=[S@](N)(=O)c2cc([C@@](C)(O)CO)cs2)CCC1 [Example 654, (S)-4-((R)-1,2-dihydroxypropan-2-yl)-N′-((3,3-dimethyl-1,2,3,5,6,7-hexahydrodicyclopenta[b,e]pyridin-8-yl)carbamoyl) thiophene-2-sulfonimidamide]	5000 to 30000
C[C@@](O)(CO)c1cc(F)c([S@@](N)(=O)=NC(=O)Nc2c3c(nc4c2CCC42CC2)CCC3)s1 [Example 675, (S)-5-((R)-1,2-dihydroxypropan-2-yl)-3-fluoro-N′-((1′,5′,6′,7′-tetrahydro-2′H-spiro[cyclopropane-1,3′-dicyclopenta[b,e]pyridin]-8′-yl)carbamoyl)thiophene-2-sulfonimidamide]	5000 to 30000
C[C@](O)(CO)c1cc(F)c([S@](N)(=O)=NC(=O)Nc2c3c(nc4c2CCC42CC2)CCC3)s1 [Example 678, (R)-5-((S)-1,2-dihydroxypropan-2-yl)-3-fluoro-N′-((1′,5′,6′,7′-tetrahydro-2′H-spiro[cyclopropane-1,3′-dicyclopenta[b,e]pyridin]-8′-yl)carbamoyl)thiophene-2-sulfonimidamide]	8 to 40

Next, values leading:

IC50 [nM]	SMILES
1000 to 5000	CCc1ccsc1S(N)(=O)=NC(=O)Nc1c2c(nc3c1CC[C@H]3C)CCC2 (stereo partly drawn) [Example 631, 3-Ethyl-N′-(((R)-3-methyl-1,2,3,5,6,7-hexahydrodicyclopenta[b,e]pyridin-8-yl)carbamoyl)thiophene-2-sulfonimidamide]
1000 to 5000	CCn1ccc(S(N)(=O)=NC(=O)Nc2c(C)c(C(F)(F)F)nc3c2CCC3)n1 (stereo not shown) [Example 634, 1-Ethyl-N′-((3-methyl-2-(trifluoromethyl)-6,7-dihydro-5H-cyclopenta[b]pyridin-4-yl)carbamoyl)-1H-pyrazole-3-sulfonimidamide]
8 to 40	CCn1cc(F)c(S(N)(=O)=NC(=O)Nc2c3c(nc4c2CCC4(C)C)CCC3)n1 (stereo not shown) [Example 638, N′-((3,3-dimethyl-1,2,3,5,6,7-hexahydrodicyclopenta[b,e]pyridin-8-yl)carbamoyl)-1-ethyl-4-fluoro-1H-pyrazole-3-sulfonimidamide]
40 to 200	CC1(C)CCc2c1nc1c(c2NC(=O)N=[S@@](N)(=O)c2cc([C@@](C)(O)CO)cs2)CCC1 [Example 653, (R)-4-((R)-1,2-dihydroxypropan-2-yl)-N′-((3,3-dimethyl-1,2,3,5,6,7-hexahydrodicyclopenta[b,e]pyridin-8-yl)carbamoyl) thiophene-2-sulfonimidamide]
200 to 1000	C[C@@](O)(CO)c1cc(F)c([S@](N)(=O)=NC(=O)Nc2c3c(nc4c2CCC42CC2)CCC3)s1 [Example 676, (R)-5-((R)-1,2-dihydroxypropan-2-yl)-3-fluoro-N′-((1′,5′,6′,7′-tetrahydro-2′H-spiro[cyclopropane-1,3′-dicyclopenta[b,e]pyridin]-8′-yl)carbamoyl)thiophene-2-sulfonimidamide]
5000 to 30000	C[C@](O)(CO)c1cc(F)c([S@@](N)(=O)=NC(=O)Nc2c3c(nc4c2CCC42CC2)CCC3)s1 [Example 677, (S)-5-((S)-1,2-dihydroxypropan-2-yl)-3-fluoro-N′-((1′,5′,6′,7′-tetrahydro-2′H-spiro[cyclopropane-1,3′-dicyclopenta[b,e]pyridin]-8′-yl)carbamoyl)thiophene-2-sulfonimidamide]

same assay, conditions: Homo sapiens, THP-1, Table B3; hTHP-1 assay, 2% fetal bovine serum; numeric values; read-out: IC50

SMILES	IC50 [nM]
CC(C)(O)c1cnc(S(N)(=O)=NC(=O)Nc2c3c(nc4c2CCC4O)CCC3)s1 (stereo not shown) [Example 635, N′-((3-hydroxy-1,2,3,5,6,7-hexahydrodicyclopenta[b,e]pyridin-8-yl)carbamoyl)-5-(2-hydroxypropan-2-yl)thiazole-2-sulfonimidamide]	> 30000
Cc1c(C(=O)O)nc2c(c1NC(=O)N=S(N)(=O)c1cnc(C(C)(C)O)s1)CCC2 (stereo not shown) [Example 636, 4-(3-(Amino(2-(2-hydroxypropan-2-yl)thiazol-5-yl)(oxo)-l6-sulfaneylidene)ureido)-3-methyl-6,7-dihydro-5H-cyclopenta[b]pyridine-2-carboxylic acid]	> 30000

same assay, conditions: Homo sapiens, THP-1, Table B4; 2% fetal bovine serum; class symbols; read-out: hTHP-1 IC50

SMILES	IC50 [nM]
Cc1c(C(F)(F)F)nc2c(c1NC(=O)N=S(N)(=O)c1nn(C(C)C)cc1F)CCC2 (stereo not shown) [Example 734, 4-Fluoro-1-isopropyl-N′-((3-methyl-2-(trifluoromethyl)-6,7-dihydro-5H-cyclopenta[b]pyridin-4-yl)carbamoyl)-1H-pyrazole-3-sulfonimidamide]	200 to 1000
NS(=O)(=NC(=O)Nc1c2c(nc3c1CCC3)CCC2)c1nn(C(F)F)cc1F (stereo not shown) [Example 735, 1-(Difluoromethyl)-4-fluoro-N′-((1,2,3,5,6,7-hexahydrodicyclopenta[b,e]pyridin-8-yl)carbamoyl)-1H-pyrazole-3-sulfonimidamide]	200 to 1000
NS(=O)(=NC(=O)Nc1c2c(nc(C3CC3)c1C1CC1)CCC2)c1nn(C(F)F)cc1F (stereo not shown) [Example 737, N′-((2,3-dicyclopropyl-6,7-dihydro-5H-cyclopenta[b]pyridin-4-yl)carbamoyl)-1-(difluoromethyl)-4-fluoro-1H-pyrazole-3-sulfonimidamide]	200 to 1000
Cc1c(C(F)(F)F)nc(C(F)(F)F)c(C)c1NC(=O)N=S(N)(=O)c1cc(C(C)(C)O)cs1 (stereo not shown) [Example 738, N′-((3,5-dimethyl-2,6-bis(trifluoromethyl)pyridin-4-yl)carbamoyl)-4-(2-hydroxypropan-2-yl)thiophene-2-sulfonimidamide]	1000 to 5000
CCc1c(C(F)(F)F)nc2c(c1NC(=O)N=S(N)(=O)c1nn(CC)cc1F)CCC2 (stereo not shown) [Example 743, 1-Ethyl-N′-((3-ethyl-2-(trifluoromethyl)-6,7-dihydro-5H-cyclopenta[b]pyridin-4-yl)carbamoyl)-4-fluoro-1H-pyrazole-3-sulfonimidamide]	1000 to 5000

Other lines, results leading:

IC50 [nM]	SMILES
40 to 200	CCn1cc(F)c(S(N)(=O)=NC(=O)Nc2c3c(nc(C(F)(F)F)c2-c2ccc(F)cc2)CCC3)n1 (stereo not shown) [Example 733, 1-Ethyl-4-fluoro-N′-((3-(4-fluorophenyl)-2-(trifluoromethyl)-6,7-dihydro-5H-cyclopenta[b]pyridin-4-yl)carbamoyl)-1H-pyrazole-3-sulfonimidamide]
200 to 1000	CCn1cc(F)c(S(N)(=O)=NC(=O)Nc2c3c(nc4c2CCC4)CCC3)n1 (stereo not shown) [Example 736, 1-Ethyl-4-fluoro-N′-((1,2,3,5,6,7-hexahydrodicyclopenta[b,e]pyridin-8-yl)carbamoyl)-1H-pyrazole-3-sulfonimidamide]
8 to 40	CC(C)n1cc(F)c(S(N)(=O)=NC(=O)Nc2c3c(nc4c2CC[C@H]4C)CCC3)n1 (stereo partly drawn) [Example 739, 4-Fluoro-1-isopropyl-N′-(((R)-3-methyl-1,2,3,5,6,7-hexahydrodicyclopenta[b,e]pyridin-8-yl)carbamoyl)-1H-pyrazole-3-sulfonimidamide]
40 to 200	NS(=O)(=NC(=O)Nc1c2c(nc(C(F)(F)F)c1-c1ccccc1)CCC2)c1nn(C(F)F)cc1F (stereo not shown) [Example 740, 1-(Difluoromethyl)-4-fluoro-N′-((3-phenyl-2-(trifluoromethyl)-6,7-dihydro-5H-cyclopenta[b]pyridin-4-yl)carbamoyl)-1H-pyrazole-3-sulfonimidamide]
40 to 200	CCn1cc(F)c(S(N)(=O)=NC(=O)Nc2c3c(nc(C)c2-c2ccccc2)CCC3)n1 (stereo not shown) [Example 741, 1-Ethyl-4-fluoro-N′-((2-methyl-3-phenyl-6,7-dihydro-5H-cyclopenta[b]pyridin-4-yl)carbamoyl)-1H-pyrazole-3-sulfonimidamide]
8 to 40	CCn1cc(F)c(S(N)(=O)=NC(=O)Nc2c3c(nc(C(F)(F)F)c2-c2ccccc2)CCC3)n1 (stereo not shown) [Example 742, 1-Ethyl-4-fluoro-N′-((3-phenyl-2-(trifluoromethyl)-6,7-dihydro-5H-cyclopenta[b]pyridin-4-yl)carbamoyl)-1H-pyrazole-3-sulfonimidamide]
